{
  "source": "paper PMC6908673",
  "about": "“Tuning the in vitro sensing and signaling properties of cyanobacterial PII protein by mutation of key residues” (Scientific Reports, 2019)",
  "key": {"SeNAGK + SePII": {"target": "T1, SeNAGK + SePII (Synechococcus elongatus, UniProt Q6V1L5)", "T1 construct": "gene argB; His6-tagged SeNAGK hexamer mixed with Strep-tagged SePII; two PII trimers sandwich one NAGK hexamer (WT); both from E. coli; with Nitrogen regulatory protein P-II", "T1 sequence (P0A3F4 whole entry partner, one chain of several)": "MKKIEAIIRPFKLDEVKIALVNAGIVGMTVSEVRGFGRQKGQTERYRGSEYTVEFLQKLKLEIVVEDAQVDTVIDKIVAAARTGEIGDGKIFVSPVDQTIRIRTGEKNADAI", "assay": "coupled NAGK assay (pyruvate kinase/lactate dehydrogenase, NADH oxidation)", "type": "biochemical", "details": "25 µM arginine; 2-OG acts on PII site"}, "PII-PipX complex": {"target": "T2, PII-PipX complex (Synechococcus elongatus, UniProt P0A3F4)", "T2 construct": "gene glnB; Strep-tagged PII trimer pre-incubated with His6-tagged PipX; three PipX per PII trimer; both from E. coli", "T2 sequence (P0A3F4 whole entry)": "as the sequence (P0A3F4 whole entry partner, one chain of several) above", "T2 sequence (Q7X386 1-89 partner)": "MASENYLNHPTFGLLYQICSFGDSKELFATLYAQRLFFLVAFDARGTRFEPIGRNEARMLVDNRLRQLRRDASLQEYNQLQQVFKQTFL", "assay": "indirect SPR, His6-PipX on Ni-NTA chip", "type": "binding", "details": "10 mM Hepes pH 7.5, 150 mM NaCl, 1 mM MgCl2, 25 °C"}, "SeNAGK": {"target": "T3, SeNAGK (Synechococcus elongatus, UniProt Q6V1L5)", "T3 construct": "gene argB; His6-tagged, E. coli BL21(DE3), His-Trap; hexamer, about 194 kDa", "T3 sequence (Q6V1L5 1-301)": "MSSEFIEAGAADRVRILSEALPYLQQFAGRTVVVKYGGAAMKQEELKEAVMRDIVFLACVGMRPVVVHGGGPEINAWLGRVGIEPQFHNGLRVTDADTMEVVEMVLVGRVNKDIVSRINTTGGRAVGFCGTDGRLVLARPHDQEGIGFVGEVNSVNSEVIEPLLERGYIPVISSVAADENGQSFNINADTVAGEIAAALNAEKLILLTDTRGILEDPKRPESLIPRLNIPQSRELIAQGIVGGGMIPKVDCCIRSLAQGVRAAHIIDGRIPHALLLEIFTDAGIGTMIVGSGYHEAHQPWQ", "assay": "coupled NAGK assay (pyruvate kinase/lactate dehydrogenase, NADH oxidation)", "type": "biochemical", "description": "coupled NAGK assay (pyruvate kinase/lactate dehydrogenase, NADH oxidation) on SeNAGK | Arginine feedback inhibition of non-complexed SeNAGK occurred with a half maximal inhibitory concentration (IC50) of […]"}, "[1]": {"substrate": "CC(=O)N[C@@H](CCC(=O)O)C(=O)O", "assay": "coupled NAGK assay (pyruvate kinase/lactate dehydrogenase, NADH oxidation)", "type": "biochemical, Synechococcus elongatus", "details": "without PII; without arginine", "description": "coupled NAGK assay (pyruvate kinase/lactate dehydrogenase, NADH oxidation) on SeNAGK"}, "[2]": {"substrate": "CC(=O)N[C@@H](CCC(=O)O)C(=O)O", "assay": "coupled NAGK assay (pyruvate kinase/lactate dehydrogenase, NADH oxidation)", "type": "biochemical, Synechococcus elongatus", "details": "with SePII (WT); without arginine", "description": "coupled NAGK assay (pyruvate kinase/lactate dehydrogenase, NADH oxidation) on SeNAGK + SePII"}, "[3]": {"target": "the molecule itself", "assay": "SEC-MALS; PII mixed with NAGK (molar ratio 3:1 PII trimers to NAGK hexamers) 10 min at room temperature; Superose 6 Increase 10/300 GL; 100 mM Tris-HCl pH 7.8, 300 mM NaCl, 2 mM MgCl2, 2% glycerol; eluted fractions checked by SDS-PAGE"}},
  "data": [
    {"molecule": "O=C(O)CCC(=O)C(=O)O", "note": "[2-OG]", "values": [
      {"measurement": "coupled NAGK assay (pyruvate kinase/lactate dehydrogenase, NADH oxidation)", "setting": "SeNAGK + SePII", "value": "complex of SeNAGK-SePII (WT) showed the typical inhibitory effect upon 2-OG addition"},
      {"measurement": "indirect SPR, His6-PipX on Ni-NTA chip", "setting": "PII-PipX complex; 1 mM 2-OG with 1 mM ATP", "value": "2-OG in presence of ATP impaired PipX-PII (WT) complex formation"}
    ]},
    {"molecule": "Nc1ncnc2c1ncn2[C@@H]1O[C@H](COP(=O)(O)OP(=O)(O)O)[C@@H](O)[C@H]1O", "note": "[ADP]", "values": [
      {"measurement": "indirect SPR, His6-PipX on Ni-NTA chip", "setting": "PII-PipX complex; 1 mM ADP", "value": "strong positive effect of ADP on the interaction of PII (WT) with PipX"}
    ]},
    {"molecule": "N=C(N)NCCC[C@H](N)C(=O)O", "note": "[arginine]", "values": [
      {"measurement": "IC50", "setting": "SeNAGK", "value": 11, "unit": "µM"}
    ]},
    {"molecule": "SeNAGK (Synechococcus elongatus PCC 7942 = FACHB-805) (protein, His6-tagged, E. coli BL21(DE3), His-Trap; hexamer, about 194 kDa) MSSEFIEAGAADRVRILSEALPYLQQFAGRTVVVKYGGAAMKQEELKEAVMRDIVFLACVGMRPVVVHGGGPEINAWLGRVGIEPQFHNGLRVTDADTMEVVEMVLVGRVNKDIVSRINTTGGRAVGFCGTDGRLVLARPHDQEGIGFVGEVNSVNSEVIEPLLERGYIPVISSVAADENGQSFNINADTVAGEIAAALNAEKLILLTDTRGILEDPKRPESLIPRLNIPQSRELIAQGIVGGGMIPKVDCCIRSLAQGVRAAHIIDGRIPHALLLEIFTDAGIGTMIVGSGYHEAHQPWQ", "values": [
      {"measurement": "Km", "setting": "[1]", "value": "5.1 ± 0.9", "unit": "mM"}
    ]},
    {"molecule": "SeNAGK + SePII (Synechococcus elongatus PCC 7942 = FACHB-805) (protein, His6-tagged SeNAGK hexamer mixed with Strep-tagged SePII; two PII trimers sandwich one NAGK hexamer (WT); both from E. coli; with Nitrogen regulatory protein P-II) MSSEFIEAGAADRVRILSEALPYLQQFAGRTVVVKYGGAAMKQEELKEAVMRDIVFLACVGMRPVVVHGGGPEINAWLGRVGIEPQFHNGLRVTDADTMEVVEMVLVGRVNKDIVSRINTTGGRAVGFCGTDGRLVLARPHDQEGIGFVGEVNSVNSEVIEPLLERGYIPVISSVAADENGQSFNINADTVAGEIAAALNAEKLILLTDTRGILEDPKRPESLIPRLNIPQSRELIAQGIVGGGMIPKVDCCIRSLAQGVRAAHIIDGRIPHALLLEIFTDAGIGTMIVGSGYHEAHQPWQ", "values": [
      {"measurement": "Km", "setting": "[2]", "value": "2.9 ± 0.6", "unit": "mM"}
    ]},
    {"molecule": "SeNAGK, N-acetyl-L-glutamate kinase from S. elongatus PCC7942, His6-tagged (enzyme, N-acetyl-L-glutamate kinase (NAGK) of Synechococcus elongatus PCC 7942; hexamer; also called His6-NAGK) MSSEFIEAGAADRVRILSEALPYLQQFAGRTVVVKYGGAAMKQEELKEAVMRDIVFLACVGMRPVVVHGGGPEINAWLGRVGIEPQFHNGLRVTDADTMEVVEMVLVGRVNKDIVSRINTTGGRAVGFCGTDGRLVLARPHDQEGIGFVGEVNSVNSEVIEPLLERGYIPVISSVAADENGQSFNINADTVAGEIAAALNAEKLILLTDTRGILEDPKRPESLIPRLNIPQSRELIAQGIVGGGMIPKVDCCIRSLAQGVRAAHIIDGRIPHALLLEIFTDAGIGTMIVGSGYHEAHQPWQ", "values": [
      {"measurement": "stoichiometry N", "setting": "[3]", "value": 6}
    ]}
  ]
}
